Results as given in patent publication US20130157954A1, “METHODS FOR TREATMENT OR PROPHYLAXIS OF KIDNEY OR LIVER DYSFUNCTION” (NPS PHARMACEUTICALS, INC., priority 2010, published 2013).

Experiment: Example 2: liver biomarkers (albumin, gamma glutamyl transferase, total bilirubin, ALT, AST, ALP) in short bowel syndrome patients, every four weeks for 24 weeks; also sorted by >10% change from baseline
Format: in vivo, Human
Conditions: 0.05 mg/kg/d; for Bilirubin: subjects Within 10% of Baseline / Bilirubin: subjects with >10% decrease from Baseline / Bilirubin: subjects with >10% increase from Baseline / ALT: subjects Within 10% of Baseline / ALT: subjects with >10% decrease from Baseline / ALT: subjects with >10% increase from Baseline / AST: subjects Within 10% of Baseline / AST: subjects with >10% decrease from Baseline / AST: subjects with >10% increase from Baseline / Albumin: subjects Within 10% of Baseline / Albumin: subjects with >10% decrease from Baseline / Albumin: subjects with >10% increase from Baseline / Alkaline Phosphatase: subjects Within 10% of Baseline / Alkaline Phosphatase: subjects with >10% decrease from Baseline / Alkaline Phosphatase: subjects with >10% increase from Baseline: m = 40
Experimental: To further confirm the results of Example 1, a further study was conducted involving more individuals and additional diagnostic biomarkers. Human patients with short bowel syndrome were divided into two groups: a control group (43 total individuals) to receive placebo, and an experimental group (42 total individuals) to receive teduglutide at 0.05 mg/kg/day throughout the study. Patients were treated by subcutaneous injection of placebo or the appropriate dose of teduglutide. Known biomarkers of liver function were monitored every four weeks, for 24 weeks. The liver biomarkers tested included albumin, gamma glutamyl transferase, total bilirubin, ALT and AST and ALP. Before administration of placebo or teduglutide, diagnostic biomarker levels were tested to establish a baseline for each individual.
To determine the effect of GLP-2 on the levels of the diagnostic biomarkers, the average level of each biomarker was measured for the placebo and teduglutide treated groups for each visit. Furthermore, the average change from baseline was calculated using the established baseline values. For FIGS. 17-28, p-values were calculated using the t-test.
P values are provided, which were calculated for each distribution of biomarker changes for each week using the chi-squared test.

SMILES: CC[C@H](C)[C@H](NC(=O)[C@H](Cc1ccccc1)NC(=O)[C@H](CC(=O)O)NC(=O)[C@H](CCCNC(=N)N)NC(=O)[C@H](C)NC(=O)[C@H](C)NC(=O)[C@H](CC(C)C)NC(=O)[C@H](CC(N)=O)NC(=O)[C@H](CC(=O)O)NC(=O)[C@H](CC(C)C)NC(=O)[C@@H](NC(=O)[C@@H](NC(=O)[C@H](CC(N)=O)NC(=O)[C@H](CCSC)NC(=O)[C@H](CCC(=O)O)NC(=O)[C@H](CC(=O)O)NC(=O)[C@H](CO)NC(=O)[C@H](Cc1ccccc1)NC(=O)[C@H](CO)NC(=O)CNC(=O)[C@H](CC(=O)O)NC(=O)CNC(=O)[C@@H](N)Cc1c[nH]cn1)[C@@H](C)O)[C@@H](C)CC)C(=O)N[C@@H](CC(N)=O)C(=O)N[C@@H](Cc1c[nH]c2ccccc12)C(=O)N[C@@H](CC(C)C)C(=O)N[C@H](C(=O)N[C@@H](CCC(N)=O)C(=O)N[C@H](C(=O)N[C@@H](CCCCN)C(=O)N[C@H](C(=O)N[C@H](C(=O)N[C@@H](CC(=O)O)C(=O)O)[C@@H](C)O)[C@@H](C)CC)[C@@H](C)O)[C@@H](C)CC [teduglutide]
- Bilirubin: subjects Within 10% of Baseline (Week 2): 5 (12.5%) n (%)
- Bilirubin: subjects with >10% decrease from Baseline (Week 2): 28 (70.0%) n (%)
- Bilirubin: subjects with >10% increase from Baseline (Week 2): 7 (17.5%) n (%)
- ALT Change from Baseline, Max (Week 4): 29 U/L
- ALT Change from Baseline, Mean (Week 4): −9.2 U/L
- ALT Change from Baseline, Median (Week 4): −7 U/L
- ALT Change from Baseline, Min (Week 4): −44 U/L
- ALT Observed Value, Max (Week 4): 104 U/L
- ALT Observed Value, Median (Week 4): 29 U/L
- ALT Observed Value, Min (Week 4): 8 U/L
- AST Change from Baseline, Max (Week 4): 43 U/L
- AST Change from Baseline, Mean (Week 4): −3.5 U/L
- AST Change from Baseline, Median (Week 4): −5 U/L
- AST Change from Baseline, Min (Week 4): −31 U/L
- AST Observed Value, Max (Week 4): 89 U/L
- AST Observed Value, Min (Week 4): 13 U/L
- Albumin Change from Baseline, Max (Week 4): 5 g/L
- Albumin Change from Baseline, Mean (Week 4): -0.7 g/L
- Albumin Change from Baseline, Median (Week 4): -1 g/L
- Albumin Change from Baseline, Min (Week 4): -7 g/L
- Albumin Observed Value, Max (Week 4): 47 g/L
- Albumin Observed Value, Median (Week 4): 42 g/L
- Albumin Observed Value, Min (Week 4): 34 g/L
- Alkaline Phosphatase Change from Baseline, Max (Week 4): 34 U/L
- Alkaline Phosphatase Change from Baseline, Min (Week 4): −89 U/L
- Alkaline Phosphatase Observed Value, Max (Week 4): 307 U/L
- Alkaline Phosphatase Observed Value, Min (Week 4): 54 U/L
- Bilirubin Change from Baseline, Max (Week 4): 9.0 µmol/L
- Bilirubin Change from Baseline, Mean (Week 4): -1.10 µmol/L
- Bilirubin Change from Baseline, Median (Week 4): -1.5 µmol/L
- Bilirubin Change from Baseline, Min (Week 4): -14.2 µmol/L
- Bilirubin Observed Value, Max (Week 4): 54.0 µmol/L
- Bilirubin Observed Value, Min (Week 4): 3.4 µmol/L
- Gamma Glutamyl Transferase Change from Baseline, Max (Week 4): 105 U/L
- Gamma Glutamyl Transferase Change from Baseline, Mean (Week 4): 1.7 U/L
- Gamma Glutamyl Transferase Change from Baseline, Median (Week 4): −0.5 U/L
- Gamma Glutamyl Transferase Change from Baseline, Min (Week 4): −88 U/L
- Gamma Glutamyl Transferase Observed Value, Max (Week 4): 309 U/L
- Gamma Glutamyl Transferase Observed Value, Min (Week 4): 12 U/L
- ALT: subjects Within 10% of Baseline (Week 4): 8 (20.0%) n (%)
- ALT: subjects with >10% decrease from Baseline (Week 4): 26 (65.0%) n (%)
- ALT: subjects with >10% increase from Baseline (Week 4): 6 (15.0%) n (%)
- AST: subjects Within 10% of Baseline (Week 4): 6 (15.0%) n (%)
- AST: subjects with >10% decrease from Baseline (Week 4): 26 (65.0%) n (%)
- AST: subjects with >10% increase from Baseline (Week 4): 8 (20.0%) n (%)
- Albumin: subjects Within 10% of Baseline (Week 4): 35 (87.5%) n (%)
- Albumin: subjects with >10% decrease from Baseline (Week 4): 3 (7.5%) n (%)
- Albumin: subjects with >10% increase from Baseline (Week 4): 2 (5.0%) n (%)
- Alkaline Phosphatase: subjects Within 10% of Baseline (Week 4): 16 (40.0%) n (%)
- Alkaline Phosphatase: subjects with >10% decrease from Baseline (Week 4): 22 (55.0%) n (%)
- Alkaline Phosphatase: subjects with >10% increase from Baseline (Week 4): 2 (5.0%) n (%)
- Bilirubin: subjects Within 10% of Baseline (Week 4): 7 (17.5%) n (%)
- Bilirubin: subjects with >10% decrease from Baseline (Week 4): 19 (47.5%) n (%)
- Bilirubin: subjects with >10% increase from Baseline (Week 4): 14 (35.0%) n (%)
- ALT Change from Baseline, Max (Week 8): 20 U/L
- ALT Change from Baseline, Median (Week 8): −5.5 U/L
- ALT Change from Baseline, Min (Week 8): −65 U/L
- ALT Observed Value, Max (Week 8): 138 U/L
- ALT Observed Value, Median (Week 8): 26 U/L
- ALT Observed Value, Min (Week 8): 9 U/L
- AST Change from Baseline, Max (Week 8): 17 U/L
- AST Change from Baseline, Mean (Week 8): −5.1 U/L
- AST Change from Baseline, Median (Week 8): −5 U/L
- AST Change from Baseline, Min (Week 8): −46 U/L
- AST Observed Value, Max (Week 8): 63 U/L
- AST Observed Value, Min (Week 8): 8 U/L
- Albumin Change from Baseline, Max (Week 8): 4 g/L
- Albumin Change from Baseline, Mean (Week 8): -0.7 g/L
- Albumin Change from Baseline, Median (Week 8): -1 g/L
- Albumin Change from Baseline, Min (Week 8): -5 g/L
- Albumin Observed Value, Max (Week 8): 48 g/L
- Albumin Observed Value, Median (Week 8): 42 g/L
- Albumin Observed Value, Min (Week 8): 36 g/L
- Alkaline Phosphatase Change from Baseline, Max (Week 8): 19 U/L
- Alkaline Phosphatase Change from Baseline, Min (Week 8): −105 U/L
- Alkaline Phosphatase Observed Value, Max (Week 8): 341 U/L
- Alkaline Phosphatase Observed Value, Median (Week 8): 94 U/L
- Alkaline Phosphatase Observed Value, Min (Week 8): 46 U/L
- Bilirubin Change from Baseline, Max (Week 8): 6.8 µmol/L
- Bilirubin Change from Baseline, Mean (Week 8): -1.60 µmol/L
- Bilirubin Change from Baseline, Median (Week 8): -0.95 µmol/L
- Bilirubin Change from Baseline, Min (Week 8): -14.9 µmol/L
- Bilirubin Observed Value, Max (Week 8): 61.8 µmol/L
- Bilirubin Observed Value, Min (Week 8): 3.4 µmol/L
- Gamma Glutamyl Transferase Change from Baseline, Max (Week 8): 77 U/L
- Gamma Glutamyl Transferase Change from Baseline, Mean (Week 8): −5.7 U/L
- Gamma Glutamyl Transferase Change from Baseline, Median (Week 8): −5.5 U/L
- Gamma Glutamyl Transferase Change from Baseline, Min (Week 8): −145 U/L
- Gamma Glutamyl Transferase Observed Value, Max (Week 8): 281 U/L
- Gamma Glutamyl Transferase Observed Value, Median (Week 8): 46 U/L
- Gamma Glutamyl Transferase Observed Value, Min (Week 8): 6 U/L
- ALT: subjects Within 10% of Baseline (Week 8): 7 (17.5%) n (%)
- ALT: subjects with >10% decrease from Baseline (Week 8): 26 (65.0%) n (%)
- ALT: subjects with >10% increase from Baseline (Week 8): 7 (17.5%) n (%)
- AST: subjects Within 10% of Baseline (Week 8): 8 (20.0%) n (%)
- AST: subjects with >10% decrease from Baseline (Week 8): 24 (60.0%) n (%)
- AST: subjects with >10% increase from Baseline (Week 8): 8 (20.0%) n (%)
- Albumin: subjects Within 10% of Baseline (Week 8): 38 (95.0%) n (%)
- Albumin: subjects with >10% decrease from Baseline (Week 8): 1 (2.5%) n (%)
- Albumin: subjects with >10% increase from Baseline (Week 8): 1 (2.5%) n (%)
- Alkaline Phosphatase: subjects Within 10% of Baseline (Week 8): 13 (32.5%) n (%)
- Alkaline Phosphatase: subjects with >10% decrease from Baseline (Week 8): 25 (62.5%) n (%)
- Alkaline Phosphatase: subjects with >10% increase from Baseline (Week 8): 2 (5.0%) n (%)
